For data set [1], the system named is Aβ (1–42). Particulars: 100 nM of Aβ (1–42); cited from earlier work. As for the experimental part:
The neutral αAC nanofibers suppressed aggregation of Aβ (1–42), without promoting the aggregation of 3RMBDof tau (Fig 2) and cytotoxicity of Aβ (1–42) against PC12 cells (Fig 7). Several brain-permeable low molecular weight compounds that suppress the aggregation of amyloidβ have been proposed as therapeutic drugs for AD [48–55]; unfortunately, the affinity of these compounds for Aβ tends to be low. For example, >100 nM of curcumin is required to inhibit the cytotoxicity of 100 nM of Aβ (1–42).

Data set [2] has as its target T1, trypsin (Bos taurus, UniProt P00760).
T1 construct: purchased type XIII; host or cells: bovine pancreas
T1 sequence (P00760 24-246): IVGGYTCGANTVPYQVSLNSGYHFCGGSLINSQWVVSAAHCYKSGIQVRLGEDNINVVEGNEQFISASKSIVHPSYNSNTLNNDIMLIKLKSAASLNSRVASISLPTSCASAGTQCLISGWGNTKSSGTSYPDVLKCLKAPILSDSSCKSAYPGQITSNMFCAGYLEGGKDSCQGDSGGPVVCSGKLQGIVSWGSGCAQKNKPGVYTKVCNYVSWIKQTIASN
Briefly: Proteolytic digestion with trypsin (GPC). It is filed as in vitro ADME. Particulars: 200 μM peptide or nanofiber, 12 μM trypsin (type XIII, bovine pancreas), 5 mM phosphate 100 mM NaCl pH 7.5, 37°C, GPC peak of FVIFLDVK, A220. The protocol:
The αAC peptides or the neutralαAC nanofiber (200 μM) were incubated with trypsin (12 μM, type XIII from bovine pancreas) in 5 mM phosphate buffer containing 100 mM NaCl (pH 7.5) at 37°C. The molecular mass of the digested peptides were analyzed with MALDI-TOF mass spectroscopy using a BrukerAutoflex Speed instrument. The proteolyzed sample of αAC nanofibers was centrifuged (10,000g for 5 min) to separate the peptide fragments from the nanofibers. The apparent rate of proteolysis of αAC(71–88) was estimated from gel permeation chromatography analysis using a Superdex^TMpeptide 10/300 GL column (GE Healthcare, Piscataway, NJ). Water including 30% acetonitrile and 0.1% TFA was used as the elution solvent.

The test system of data set [3] is Aβ peptides. Particulars: cited from earlier work. The source says: (§1) Alzheimer’s disease (AD) is a progressive neurodegenerative disorder and the most common form of dementia characterized by senile plaque (SP), which is the extracellular deposit of amyloidβ(Aβ)aggregates,and neurofibrillary tangle, which is the intracellular accumulation of phosphorylated tau protein [3]. Although highly ordered linear Aβaggregates, known as amyloid fibrils, are the major component of SP and one of the hallmark features of AD, soluble oligomers of aggregates are regarded as more cytotoxic. The therapeutic use of peptide inhibitors of pathological ...

Data set [4] has as its system rat pheochromocytoma (PC12). Particulars: cited from earlier work.
Source text: as §1

Where a SMILES comes first, the peptide text is derived from it.

Turning to `COc1cc(/C=C/C(=O)CC(=O)/C=C/c2ccc(O)c(OC)c2)ccc1O` [curcumin], the “concentration required to inhibit the cytotoxicity of Aβ (1–42)” value in data set [1] is over 100 nM.

As to `CC[C@H](C)[C@H](NC(=O)[C@@H](NC(=O)[C@@H](N)Cc1ccccc1)C(C)C)C(=O)N[C@@H](Cc1ccccc1)C(=O)N[C@@H](CC(C)C)C(=O)N[C@@H](CC(=O)O)C(=O)N[C@H](C(=O)N[C@@H](CCCCN)C(=O)N[C@@H](Cc1c[nH]cn1)C(=O)N[C@@H](Cc1ccccc1)C(=O)N[C@@H](CO)C(=O)N1CCC[C@H]1C(=O)N[C@@H](CCC(=O)O)C(=O)N[C@@H](CC(=O)O)C(=O)N[C@@H](CC(C)C)C(=O)N[C@H](C(=O)N[C@H](C(=O)N[C@@H](CCCCN)C(=O)O)C(C)C)[C@@H](C)O)C(C)C` [αAC(71–88)] (H-FVIFLDVKHFSPEDLTVK-OH), the “fraction of αAC(71–88) digested (single cleavage) after 24 h proteolysis” value in data set [2] is recorded as “ca. 90%”.

With “DFVIFLDVKHFSPEDLTVK [CPP-fused αAC peptides, cell-penetrating peptide-fused type peptides of the αA-crystallin peptide]”, in data set [3], the “effect on Aβ fibril formation” value is given as “prevented Aβ fibril formation”. Moreover, in data set [4], the “effect on Aβ toxicity” value is “suppress Aβ toxicity”.

For the compound DFVIFLDVKHFSPEDLTVK, the “effect on fibril formation of Aβ peptides” value in data set [3] was “inhibit fibril formation”. In addition, the “effect on toxicity of Aβ in PC12” value in data set [4] (rat pheochromocytoma (PC12)) is recorded as “suppress the toxicity”.
